From patent US7217686B1, “DNA sequence encoding oncofetal ferritin protein” (Gardino Investment N.V., priority 1999, dated 2007)
Several values for one entry are separate records, joined by “and”; a condition that tells them apart may be missing. Identical values can stand only once.

Experiments:
[1] = tested on: human bone marrow progenitor CFU-GM; test: CFU-GM colony assay with normal human bone marrow mononuclear cells; type: cell-based; details: Cond. Med. 5% vol/vol, p43 (PLF) 1 μg/ml, GM-CSF 15 ng/ml; for number of CFU-GM colonies: scored after 14 days
Experimental: Bone marrow samples from 11 healthy volunteer donors were processed by density gradient separation using […] (Sigma diagnostics, St. Louis, Mo., USA) to obtain a purified population of mononuclear cells. Colony assays were performed in a plating medium containing final concentrations of 0.92% methyl cellulose (M-281 powder, 4,000 centipoise, Fisher Scientific Co., Fair Lawn, N.J., USA), rehydrated in Iscove's modified Dulbecco's medium containing 36 mM sodium bicarbonate (Gibco, Grand Island, N.Y., USA), 30% fetal bovine serum (FBS) (HyClone, Logan, Utah, USA) 0.292 mg/ml glutamine, 100 U/ml penicillin and 0.01 mg/ml streptomycin (Biological Industries, Beit Haemek, Israel). Growth factors used were […] GM-CSF Leucomax (Sandoz Pharma) and 5% vol/vol human phytohemagglutinin-M (Difco Laboratories, Detroit, Mich., USA)-induced conditioned medium (Cond. Med.) p43 (PLF) was added at concentration of 1 μg/mL and in neutralization experiments, p43 (PLF) was preincubated with 10× excess of CM-H-9 MoAb at 37° C. for 30 min and the complex added to the assay as above. The colony assay medium contained 10^5 mononuclear cells/ml and each 1 ml was plated into triplicate wells (333 μl/well) of a 24 well tissue culture plate (Greiner, Germany). Water was added to spaces between cells to maximize humidity during incubation of the cultures. The cultures were incubated at 37° C. in 5% CO2 and 55% relative humidity. Plates were scored after 14 days for colonies containing more than 50 cells.

[2] = tested on: activated human lymphocytes in MLR; test: Cytokine secretion by activated human lymphocytes in mixed lymphocyte culture (ELISA); type: cell-based; details: 24 h culture supernatant
Experimental: In-vitro activation of human lymphocytes without and with C48/OFF1 treatment was carried out in a mixed lymphocyte culture (MLC). Human peripheral blood lymphocytes ([…]) (responder cells) were incubated with non-related Mitomycin C (40 μgr/ml) treated lymphocytes (2×10^6/ml) in RPMI-1640 medium containing 10% Fetal Calf serum and antibiotics. The cultures were incubated for 24 h in a humidified incubator at 37° C. with 5% CO2. Supernatants were collected and the concentration of the secreted cytokines were measured using an ELISA assay kit. The level of IL-2 R, and interferon (Th1 cytokines) and IL-6 and IL-10 (TH2 cytokines) were determined.

[3] = tested on: zymosan induced arthritis (ZIA); test: Zymosan induced arthritis (ZIA) in mice; type: in vivo; details: for Knee swelling Mean +/− SD (n = 10): C48 30 μg/per mouse daily i.p. from day 1 up to 10
Experimental: Animals: Female ICR mice were obtained from our institution's breeding facilities and were fed a standard diet and tap water ad libidum. Induction of zymosan-induced arthritis: A homogeneous suspension of 25 mg zymosan A (Saccharomyces cerevisiae), dissolves in 1 ml endotoxin-free saline, was obtained by boiling twice followed by sonic emulsification. Arthritis was induced by intrarticular injection of 0.5 mgr/20 l zymosan into each right and left knees. Assessment of ZIA: Mice were evaluated at 14 days post zymosan injections: Swelling was quantitated by measuring the thickness of the knees with a caliper, at 14th day post ZIA and compared to the thickness prior to ZIA. Histologic processing and analysis of knee joints: Knee joints were dissected, fixed, decalcified, dehydrated, and embedded in paraffin. Standard frontal section of 7 μm were prepared and stained with eosin-hematoxilin. Disease severity was assessed by calculation of arthritic index as follows: • Semiquantitative assessment of pathologic findings was performed using a grading system, consisting of five grades. Grade 0: normal synovia; grade 1: 1–5 cellular infiltrates in the microscopic field; grade 2: 6–20 cellular infiltrates; grade 3: 21–50 infiltrates; grade 4: more than […]. • Lymphocytic nodules: grade 1: 1–3 nodules per sectio; grade 2: 4–10 nodules; grade 3: 11–20 nodules; grade 4: more than 20 nodules. • Histiocytes grading: grade 1: 1–10 cell; grade 2: 11–20 cells; grade 3: 21–30 cells; grade 4: more than 30 cells. • Synovial thickness: grade 0: presence of 1 layer of synovial cells; grade 2: 2–3 layers; grade 3: 4–6 layers; grade 4: more than 6 layers. The presence of pannus was considered evidence of severe synovitis. Treatment with C48 (OFF1): Three groups of 10 mice each, were treated by daily intraperitoneal injections of either PBS (control group) or C48 (30 μg/per mouse). Statistical analysis: The significance of comparisons between means was assessed by Student's t-test. Effect of C48 administration on ZIA: Two group of mice (n=10 each) were treated by daily i.p. injections from day 1 up to 10 (10 days), or from day 3 to 10 (7 days) (C48 delayed) following intraarticular zymosan injections. Groups of ZIA mice (n=10) which received daily injections of PBS served as control.

In the case of “GM-CSF: GM-CSF Leucomax (Sandoz Pharma), growth factor used for comparison [reference compound]”, the “MEDIAN number of CFU-GM colonies” value ([1]; 11 donors) is reported as 144, the “RANGE of number of CFU-GM colonies” value ([1]; 11 donors) is reported as 50–884 and the “mean number of CFU-GM colonies (AVG.)” value ([1]; 11 donors) is reported as 276+/−257 and 276.2. The “number of CFU-GM colonies” value ([1]; Bone Marrow No. 1) was 144, the “number of CFU-GM colonies” value ([1]; Bone Marrow No. 2) was 396 and the “number of CFU-GM colonies” value ([1]; Bone Marrow No. 3) was 114. The “number of CFU-GM colonies” value ([1]; Bone Marrow No. 4) was 66, the “number of CFU-GM colonies” value ([1]; Bone Marrow No. 5) was 136 and the “number of CFU-GM colonies” value ([1]; Bone Marrow No. 6) was 250. For the same substance, the “number of CFU-GM colonies” value ([1]; Bone Marrow No. 7) was 50, the “number of CFU-GM colonies” value ([1]; Bone Marrow No. 8) was 74 and the “number of CFU-GM colonies” value ([1]; Bone Marrow No. 9) was 520. For the same substance, the “number of CFU-GM colonies” value ([1]; Bone Marrow No. 10) was 884 and the “number of CFU-GM colonies” value ([1]; Bone Marrow No. 11) was 405.

“C48/OFF 1: deletion construct encoding the unique C-terminal 48 aa of OFF1, expressed in E. coli as GST fusion protein (FPSPISPSPSCWHHYTTNRPQPQHHLLRPRRRKRPHSIPTPILIFRSP; left off: a dimerising Fc or GST)” was tested, and the “IL-6 secreted in MLR” value [2] was 170,779 +/− 58,800 u/mL, the “IL-10 secreted in MLR” value [2] was 1125 +/− 332 u/mL and the “sIL-2R secreted in MLR” value [2] was 50 u/mL. For the same substance, the “γ Interferon secreted in MLR” value [2] was 46 u/mL, the “Knee swelling Mean +/− SD (n = 10)” value ([3]; 14 days post zymosan) was 0.24 mm and the “Knee swelling Mean +/− SD (n = 10)” value ([3]; 14 days post zymosan, listed as C48) was 0.24 +/− 0.56 mm. For the same substance, the “Knee swelling Mean +/− SD (n = 10), C48 delayed” value ([3]; C48 30 μg/per mouse daily i.p. from day 3 to 10, 14 days post zymosan, listed as C48) was 0.33 mm and 0.33 +/− 0.57 mm, the “Arthritis Score Mean +/− SD (n = 10)” value ([3]; C48 daily i.p. from day 1 up to 10, mean grades of pathological findings) was 1 +/− 0.83 and the “Arthritis Score Mean +/− SD (n = 10), C48 delayed” value ([3]; C48 daily i.p. from day 3 to 10, mean grades of pathological findings) was 0.9 +/− 0.83. The severity of arthritis ([3]; C48 from day 1 to 10 or from day 3 to 10, compared with PBS) was “very mild”.
